{"source": "a melting point compilation (Tetko et al.; mined from patent text by program, amines drawn as free bases though some values may be those of a salt)"}
{"units": {"melting point": "°C"}}
{"smiles": "C=CCN1CCC[C@H]1C(N)=O", "melting point": "79 to 81"}
{"smiles": "CCn1ncc2c(NCC3CCCCC3)c3cc(OCCN4CCOCC4)ccc3nc21", "melting point": "176 to 178"}
{"smiles": "N#Cc1ccc(OCCCC(=O)O)cc1", "melting point": 210}
{"smiles": "CNc1nc(Cl)c(Cl)c(N2CCN(CC[C@H]3CC[C@H](NC(=O)OC(C)(C)C)CC3)CC2)n1", "melting point": "199 to 202"}
{"smiles": "O=[N+]([O-])c1ccccc1N1CCN(Cc2ccccc2)CCN1", "melting point": "90 to 92"}
{"smiles": "O=C(Nc1ccc(OC(F)(F)F)cc1)NC1CCN(C(=O)c2ccncc2)CC1", "melting point": "210 to 212"}
{"smiles": "Cc1cccc(C(O)CNC(=C[N+](=O)[O-])NCCSCc2cc(C)c(CN(C)C)s2)c1", "note": "(stereo unspecified)", "melting point": "88 to 89"}
{"smiles": "CCOC(=O)c1cccc2nc3cc(C(=O)c4ccccc4)ccc3nc12", "melting point": "115 to 116"}
{"smiles": "CC(C)(C)C(=O)Nc1nc(Cl)c2c(n1)[nH]c1ccccc12", "melting point": 234}
{"smiles": "CC(=O)N1CC(=O)NC(=Cc2ccc(OCc3ccccc3)cn2)C1=O", "melting point": "189 to 191"}
{"smiles": "COc1cn2nc(Cl)ccc2n1", "melting point": "134 to 136"}
{"smiles": "CCC(=O)N1CCNC1=NC#N", "melting point": "208 to 210"}
{"smiles": "Nc1ccc(S(=O)(=O)c2cc(-c3cccc(C(F)(F)F)c3)nc(N3CCCC3)c2)cc1", "melting point": "219 to 220"}
{"smiles": "OC1c2cc(OCc3ccc4ccccc4n3)ccc2OCCC1Oc1cccnc1", "note": "(stereo unspecified)", "melting point": "134 to 136"}
{"smiles": "CN(C)c1cccc2c(S(=O)(=O)Nc3ccc([N+](=O)[O-])cn3)cccc12", "melting point": 196}
{"smiles": "COCC1OC(n2c(Cl)nc3cc(Cl)c(Cl)cc32)C(O)C1O", "note": "(stereo unspecified)", "melting point": "104 to 105"}
{"smiles": "CC1(C)Oc2cc3nonc3cc2C(N2CC(O)CCC2=O)C1O", "note": "(stereo unspecified)", "melting point": "178 to 182"}
{"smiles": "Cc1nc2cc(OCc3ccccc3)c(OCc3ccccc3)cc2nc1C(=O)OCc1ccccc1", "melting point": "137 to 139"}
{"smiles": "N#Cc1cc(-c2ccc(Cl)cc2)c[nH]c1=O", "melting point": "278 to 280"}
{"smiles": "O=C1CNC(=O)N1C1CCNCC1", "melting point": "214 to 217"}
{"smiles": "Nc1ccc(S(=O)C(F)(F)C(F)F)cc1F", "note": "(stereo unspecified)", "melting point": "67 to 69"}
{"smiles": "Cc1cc(C(=O)Oc2ccccc2)c(O)c2ccccc12", "melting point": "76 to 77"}
{"smiles": "Cc1nc2c(O)cc(C(=O)N(C)C)cc2n1COCC[Si](C)(C)C", "melting point": "150 to 151"}
{"smiles": "COc1ccc(COC(=O)c2ncn3c2[C@@H]2CCCN2C(=O)c2c(Cl)cccc2-3)cc1", "melting point": "185 to 186"}
{"smiles": "CNc1cc(NS(=O)(=O)c2ccc(C)cc2)nc(NC)n1", "melting point": "270 to 272"}
{"smiles": "C=CCCn1cnc2c1c(=O)n(CCCC)c(=O)n2CCCC", "melting point": "41 to 42"}
{"smiles": "O=C(O)c1cc(Cl)c2cccnc2c1O", "melting point": "285 to 287"}
{"smiles": "CC(C)CCCC(C)C1CCC2C3CC=C4CC(Br)CCC4(C)C3CCC12C", "note": "(stereo unspecified)", "melting point": "99.5 to 100"}
{"smiles": "O=C(NCC1(c2ccccc2)CCCC1)N1CCC(Sc2ccc(CCNC[C@H](O)COc3ccc(O)cc3)cc2)CC1", "melting point": 132}
{"smiles": "COC(=O)C1CCC2C3CCC4CC(O)C=CC4(C)C3C(=O)CC12C", "note": "(stereo unspecified)", "melting point": "172 to 175"}
{"smiles": "N#Cc1ccc2c(c1)c(C1CCC3(CC1)OCCO3)cn2Cc1ccccc1", "melting point": "129 to 130"}
{"smiles": "O=C1c2c(Br)ccc(Br)c2C(=O)N1CC(F)(F)C(F)(F)C(F)(F)F", "melting point": 165}
{"smiles": "CC(C)(CNc1ccc(C2=NNC(=O)CC2)cc1)NCC(O)COc1ccccc1C#N", "note": "(stereo unspecified)", "melting point": "126 to 128"}
{"smiles": "CC(O)c1nccc(N2CCc3cc(-c4ccsc4)ccc3C2)n1", "note": "(stereo unspecified)", "melting point": "126 to 128"}
{"smiles": "CCC(=O)Nc1c(C)nn(C)c1C#N", "melting point": "153 to 155"}
{"smiles": "COC1(c2cc(F)cc(Sc3ccc(Cc4ccc(F)cc4)cc3)c2)CCOCC1", "melting point": "62 to 64"}
{"smiles": "CC(=O)N1c2ccccc2CC1C(N)=S", "note": "(stereo unspecified)", "melting point": "194 to 195"}
{"smiles": "O=C(NC(=O)c1ccccc1)NC1CCN(Cc2ccccc2)CC1", "melting point": "179 to 180"}
{"smiles": "CCCCn1c(=O)c2nn(S(=O)(=O)CCCCl)cc2n(CCCC)c1=O", "melting point": "67 to 68"}
{"smiles": "COc1ccc(Nc2nc(NC3CCNCC3)nc(N(C)N3CCCCCC3)n2)cc1Cl", "melting point": 81}
{"smiles": "COCc1cn2c(C)c(C)nc2c(O)c1CCC(=O)c1ccccc1", "melting point": "167 to 168"}
{"smiles": "Cc1cc(C(=O)NN)ccc1-c1ccc(C(=O)C2CN(C)CCC23COc2cc4c(cc23)NCC4)cc1", "note": "(stereo unspecified)", "melting point": "130 to 135"}
{"smiles": "O=C(NCc1ccc(Cl)cc1)c1cn2c(CCO)cc3cc(CN4CCOCC4)cc(c1=O)c32", "melting point": "169 to 172"}
{"smiles": "CN(C)NC(=O)C(C)(C)C", "melting point": "120 to 122"}
{"smiles": "O=C1NCCC[C@@H]1NS(=O)(=O)c1cc(F)ccc1F", "melting point": "183 to 185"}
{"smiles": "COc1cc2c(N)nc(Cl)nc2c(OC)c1OC", "melting point": "244 to 245"}
{"smiles": "COc1cc(Nc2c(C#N)cnc3cc(OCC4CCN(C)CC4)ccc23)c(Cl)cc1Cl", "melting point": "191 to 193"}
{"smiles": "CCOC(=O)C(=CNC1CC1)C(=O)c1cc(F)c(F)cc1Cl", "melting point": "55 to 58"}
{"smiles": "N#Cc1ccc2[nH]c(C(=O)C34CC5CC(CC(C5)C3)C4)cc2c1", "melting point": "250 to 252"}
{"smiles": "C=CCNC1=NS(=O)(=O)c2cc(Cl)cnc2N1", "melting point": "224 to 227"}
{"smiles": "O=c1c(Cc2ccncc2)c(-c2ccccc2)[nH]c2ccccc12", "melting point": "222 to 224"}
{"smiles": "N#Cc1cccc(C=Cc2ccc(Cl)c(Cl)c2)n1", "melting point": "124 to 125"}
{"smiles": "O=C1CCC(=O)N1c1cccc(OCc2nc3ccccc3s2)c1", "melting point": "175 to 176"}
{"smiles": "C#CCc1c(C)nc(C)nc1NCc1ccc(-c2ccccc2-c2nnn[nH]2)cc1", "melting point": "205 to 206"}
{"smiles": "O=C(O)c1c(O)cccc1OCCC(c1ccccc1)(c1ccccc1)c1ccccc1", "melting point": "167 to 168"}
{"smiles": "Nc1c(C(=O)O)sc2cc(F)ccc12", "melting point": "160 to 163"}
{"smiles": "CCCOc1nc(NC(C)C(O)c2ccccc2)c2cnn(-c3ccccc3)c2n1", "note": "(stereo unspecified)", "melting point": "136 to 138"}
{"smiles": "CN1C(=O)CCCc2cc(Nc3ncc(Cl)c(Nc4ccc(N5CCCCC5)cc4C(N)=O)n3)ccc21", "melting point": "295 to 297"}
{"smiles": "COc1ccc(S(=O)(=O)N2CCc3cccc(-c4ccc(C=CC(=O)NO)cc4)c32)cc1", "melting point": "200 to 201"}
{"smiles": "O=C(NCc1ccccn1)Nc1cc(N2CCCC2=O)ccn1", "melting point": "234 to 235"}
{"smiles": "O=C(O)C(O)c1ccc(Cc2ccccc2)s1", "note": "(stereo unspecified)", "melting point": "81 to 82"}
{"smiles": "Cc1nc(-c2cccc(C(=O)Nc3ccc(Cl)cc3)c2)sc1C(=O)O", "melting point": "246 to 248"}
{"smiles": "O=C1Nc2ccccc2N(C(=O)N2CCOC(CCN3CCCCC3)C2)c2ncccc21", "note": "(stereo unspecified)", "melting point": "136 to 138"}
{"smiles": "Cc1nc(Cl)c2ncn(-c3ccc(C(C)C)cc3Br)c2n1", "melting point": "49 to 52"}
{"smiles": "O=C(Oc1ccccc1)N1C=CC(c2c(-c3ccc(F)cc3)nc3n2CCS3)C=C1", "melting point": "164 to 166"}
{"smiles": "CC1CC2C3CC(Cl)C4=CC(=O)C=CC4(C)C3(Cl)C(O)CC2(C)C1C(=O)COC(=O)C(C)(C)C", "note": "(stereo unspecified)", "melting point": 238}
{"smiles": "CCCCOCCOc1ccc(-c2ccc(N3CCC(CC(=O)OCC)C3)c(C=C(C)C(=O)O)c2)cc1", "note": "(stereo unspecified)", "melting point": 116}
{"smiles": "CCCCCCCCCCCc1nc(NC(=O)Nc2c(C(C)C)cccc2C(C)C)n[nH]1", "melting point": "168 to 170"}
{"smiles": "O=C(CBr)CS(=O)(=O)C(c1ccc(Cl)cc1)c1ccc(Cl)cc1", "melting point": "122 to 123"}
{"smiles": "Cc1ccc2sc(S(=O)(=O)c3cn[nH]c(=O)c3)cc2c1", "melting point": "240 to 242"}
{"smiles": "CCN(CC)CC=CC(=O)Nc1ccc2ncnc(Nc3cccc(Br)c3)c2c1", "melting point": "196 to 199"}
{"smiles": "COc1ccc([N+](=O)[O-])cc1CO", "melting point": "121 to 122"}
{"smiles": "COC(=O)C(C)(C)c1ccc(C(=O)Nc2cn3cc(I)ccc3n2)cc1", "melting point": "234 to 235"}
{"smiles": "CC(=O)NCC1Cc2cccc3cccc1c23", "note": "(stereo unspecified)", "melting point": 145}
{"smiles": "CCCCCCCCCCCCCCCCCCOc1cc(OCCCOc2ccc(O)cc2)cc(C(=O)OC)c1", "melting point": "85 to 88"}
{"smiles": "N#Cc1cnc2sc(-c3ccccc3)cc2c1NCCc1c[nH]cn1", "melting point": "> 245"}
{"smiles": "CC(C(=O)NC(C)(C#N)C(C)C)c1ccc(Br)cc1", "note": "(stereo unspecified)", "melting point": "98 to 99"}
{"smiles": "CCOC(=O)C=C(c1ccc(Cl)cc1)c1ccc(Cl)cc1", "melting point": "54 to 56"}
{"smiles": "O=C(O)C(=O)Nc1cccc([N+](=O)[O-])c1", "melting point": "> 270"}
{"smiles": "Cc1c(SCCSCCn2c([N+](=O)[O-])cnc2C)ccnc1CNc1cnc2ccccc2c1", "melting point": "152 to 154"}
{"smiles": "O=C(O)[C@H](Cc1ccc(C(F)(F)F)cc1)[C@@H](O)c1ccc(F)c(F)c1", "note": "(racemic)", "melting point": "76 to 77"}
{"smiles": "C[Si](C)(C)c1ccc(O)cc1", "melting point": 76}
{"smiles": "CCCC(O)C1(CCC)c2ccccc2-c2ccccc21", "note": "(stereo unspecified)", "melting point": "83 to 85"}
{"smiles": "CCOC(=O)Oc1ccc(S(=O)(=O)N2c3cc(F)c(F)cc3-n3cccc3C2CC)cc1", "note": "(stereo unspecified)", "melting point": "105 to 107"}
{"smiles": "N#Cc1nn(-c2c(Cl)cc(C(F)(F)F)cc2Cl)cc1C1(C(F)(F)C(F)(F)F)CC1", "melting point": "105 to 106"}
{"smiles": "c1ccc(COc2ccc3c(ccn3Cc3ccncc3)c2)cc1", "melting point": "124 to 125"}
{"smiles": "C[Si](C)(C)c1c(Br)cnc2c1CCO2", "melting point": "92 to 94"}
{"smiles": "CC1(C)Oc2ccc(C#N)cc2C(NC(=O)Nc2cccc(-c3ncco3)c2)C1O", "note": "(stereo unspecified)", "melting point": "130 to 135"}
{"smiles": "O=C(CCCCCN1CCN(c2cccc(C(F)(F)F)c2)CC1)N1Cc2ccc(OCCN3CCCCC3)cc2C1", "melting point": 88}
{"smiles": "C[C@H](NC(=O)CCC1CCC(=O)N1)C(=O)O", "note": "(stereo partly specified)", "melting point": "174 to 179"}
{"smiles": "CC1(C)COC(c2ccc(N)cc2)=N1", "melting point": "227 to 230"}
{"smiles": "Nc1cccc(-c2ccc(CCN3CCN(c4cccc(C(F)(F)F)c4)CC3)cc2)n1", "melting point": "189 to 191"}
{"smiles": "CC1N=C(c2ccccc2)OC(c2ccccc2)C1OC(=O)Nc1ccccc1", "note": "(stereo unspecified)", "melting point": 150}
{"smiles": "Cc1cc(N)cc(C)c1Oc1ccc(Cl)c2c1CCCC2", "melting point": "126 to 135"}
{"smiles": "Cc1c(Cl)ccc2c1[nH]c1c(C(=O)NO)cccc12", "melting point": 200}
{"smiles": "O=C(CCCNc1c(C(=O)O)[nH]c2cc(Cl)cc(Cl)c12)c1ccccc1", "melting point": "254 to 256"}
{"smiles": "Cc1ccc2c(c1)c1cc(-c3ccc(Cl)cc3Cl)c(=O)n(C)c1n2CCO", "melting point": 240}
{"smiles": "CCC1(CCCCN2CCc3sc(Cl)cc3C2)C(=O)Nc2ccccc21", "note": "(stereo unspecified)", "melting point": "117 to 119"}
{"smiles": "COc1cc2ncc(C#N)c(Nc3cccc(N(C)C)c3)c2cc1OC", "melting point": "246 to 249"}
{"smiles": "O=C(Nc1ccc(-n2nc(C(F)(F)F)cc2C(F)(F)F)cc1)c1sccc1Br", "melting point": "139 to 140"}
{"smiles": "CN1CC[C@H]2Cc3[nH][nH]c(=O)c3C[C@@H]2C1", "note": "(relative stereo)", "melting point": "245 to 247"}
